This assay addresses T1, rat mGluR5 receptor (Rattus norvegicus, UniProt P31424).
T1 construct: expressed in transfected cells; host or cells: HEK-293
The assay can be described thus: [3H]-MPEP displacement binding assay, HEK-293 cell membranes expressing rat mGluR5. The note with it: Biological Activity, Table 2A; for inhibition at 10 µM: read-out: PCT INHIB (%) @ 10 μM; for Ki: read-out: Median Ki. As to the method:
MGluR5 expressing HEK-293 cells were scraped off a plate, transferred to centrifuge tubes and washed twice by centrifugation (2000 rpm for 10 minutes, at 4° C.) in buffer (50 mM Tris pH 7.5). The resulting pellets were aliquoted and stored at minus 80° C. On the day of assay, the cells were thawed on ice and re-suspended in buffer. The binding assay was performed in a 96 well microtiter plate in a total volume of […]. Non-specific binding was determined in the presence of 10 μM MPEP. The binding reaction included a final radioligand [^3H]-MPEP concentration of 4 nM and 12-25 μg membrane protein per well. Following a 60 minute incubation at room temperature, the reaction was terminated by the addition of ice cold buffer and rapid filtration through a GF/B filter that had been presoaked for 30 minutes in 0.5% PEI. Compounds were initially tested in a single point assay to determine percent inhibition at 10 μM.
Percent inhibition and Ki values were generated by GraphPad Prism and Excel Fit. IC50 values were calculated using GraphPad by fitting to a 1 or 2 site-binding model.
where [L] is the concentration of free radioligand and Kd is the dissociation constant of radioligand for the receptor.

T1 sequence (P31424 21-1203): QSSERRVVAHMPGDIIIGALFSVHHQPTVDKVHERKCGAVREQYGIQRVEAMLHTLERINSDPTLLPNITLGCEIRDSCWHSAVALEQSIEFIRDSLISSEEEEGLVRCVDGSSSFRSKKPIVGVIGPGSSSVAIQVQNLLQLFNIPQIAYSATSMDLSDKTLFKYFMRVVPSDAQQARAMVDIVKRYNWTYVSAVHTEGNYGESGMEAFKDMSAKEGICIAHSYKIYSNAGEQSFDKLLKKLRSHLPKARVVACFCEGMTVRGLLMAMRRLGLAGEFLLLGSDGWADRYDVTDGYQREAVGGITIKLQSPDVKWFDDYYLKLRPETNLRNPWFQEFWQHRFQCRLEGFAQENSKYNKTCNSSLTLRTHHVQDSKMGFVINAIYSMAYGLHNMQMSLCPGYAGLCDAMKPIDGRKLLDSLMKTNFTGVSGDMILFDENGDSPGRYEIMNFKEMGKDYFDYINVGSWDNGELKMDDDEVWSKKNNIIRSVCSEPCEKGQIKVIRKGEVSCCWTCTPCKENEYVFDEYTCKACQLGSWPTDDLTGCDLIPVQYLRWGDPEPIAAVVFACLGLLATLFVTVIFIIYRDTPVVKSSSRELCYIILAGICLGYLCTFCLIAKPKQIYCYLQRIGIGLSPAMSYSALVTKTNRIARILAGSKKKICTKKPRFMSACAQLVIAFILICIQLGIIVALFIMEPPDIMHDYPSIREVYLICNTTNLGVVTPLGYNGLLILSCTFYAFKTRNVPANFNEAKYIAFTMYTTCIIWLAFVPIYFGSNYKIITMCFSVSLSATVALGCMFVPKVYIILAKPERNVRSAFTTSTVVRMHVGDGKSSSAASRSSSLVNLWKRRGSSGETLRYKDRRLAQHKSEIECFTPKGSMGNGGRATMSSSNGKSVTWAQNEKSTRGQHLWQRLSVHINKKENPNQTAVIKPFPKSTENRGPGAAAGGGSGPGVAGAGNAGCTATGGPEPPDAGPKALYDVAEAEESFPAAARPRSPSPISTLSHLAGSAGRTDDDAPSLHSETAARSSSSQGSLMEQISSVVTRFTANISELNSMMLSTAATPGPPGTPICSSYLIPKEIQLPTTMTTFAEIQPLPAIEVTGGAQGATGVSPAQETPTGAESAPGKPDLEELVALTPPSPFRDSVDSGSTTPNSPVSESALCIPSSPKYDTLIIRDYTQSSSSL

On to `O=C(c1cccc(C#Cc2ccccc2)c1)N1CCN(c2ccc(Cl)cc2)CC1` [Compound 72, 1-(4-chlorophenyl)-4-[3-(phenylethynyl)benzoyl]piperazine], for which the inhibition at 10 µM (@ 10 μM compound) turned out to be 30%.

With `Cc1ccc(N2CCN(C(=O)c3cccc(C#Cc4ccccc4)c3)CC2)cc1` [Compound 73, 1-(4-methylphenyl)-4-[3-(phenylethynyl)benzoyl]piperazine], the inhibition at 10 µM (@ 10 μM compound) came out at 0%. For the molecule `CC(=O)c1ccc(N2CCN(C(=O)c3cccc(C#Cc4ccccc4)c3)CC2)cc1` [Compound 74, 1-(4-{-[3-(phenylethynyl)benzoyl]piperazine-1-yl}phenyl)ethanone], the “PCT INHIB (%) @ 10 μM” value (@ 10 μM compound) turned out to be 20%. On to `O=C(c1cccc(C#Cc2ccccc2)c1)N1CCN(c2ccc([N+](=O)[O-])cc2)CC1` [Compound 75, 1-(4-nitrophenyl)-4-[3-(phenylethynyl)benzoyl]piperazine], for which the inhibition at 10 µM (@ 10 μM compound) was 20%.

As to `O=C(c1cccc(C#Cc2ccccc2)c1)N1CCN(c2ccccc2)CC1` [Compound 76, 1-phenyl-4-[3-(phenylethynyl)benzoyl]piperazine], the Ki (usually the equilibrium dissociation constant of an inhibitor or competing ligand from its target) came out at 1290 nM. The inhibition at 10 µM (@ 10 μM compound) worked out at 86%.

Take `O=C(c1cccc(C#Cc2ccccc2)c1)N1CCN(c2ccc(C(F)(F)F)cc2)CC1` [Compound 77, 1-[3-(phenylethynyl)benzoyl]-4-[4-(trifluoromethyl)phenyl]piperazine]: under “@ 10 μM compound”, the inhibition at 10 µM came out at 0%. In the case of `Cc1cccc(C)c1N1CCN(C(=O)c2cccc(C#Cc3ccccc3)c2)CC1` [Compound 78, 1-(2,6-dimethylphenyl)-4-[3-(phenylethynyl)benzoyl]piperazine], the Ki was over 10000 nM. Moreover, under “@ 10 μM compound”, the inhibition at 10 µM was 53%. Turning to `O=C(c1cccc(C#Cc2ccccc2)c1)N1CCN(c2ccc(F)cc2)CC1` [Compound 79, 1-(4-fluorophenyl)-4-[3-(phenylethynyl)benzoyl]piperazine], where the note is “@ 10 μM compound”, the inhibition at 10 µM was 28%. Take `CSc1ccccc1N1CCN(C(=O)c2cccc(C#Cc3ccccc3)c2)CC1` [Compound 80, 1-[2-(methylthio)phenyl]-4-[3-(phenylethynyl)benzoyl]piperazine]: the inhibition at 10 µM (@ 10 μM compound) turned out to be 24%. With `COc1cccc(N2CCN(C(=O)c3cccc(C#Cc4ccccc4)c3)CC2)c1` [Compound 81, 1-(3-methoxyphenyl)-4-[3-(phenylethynyl)benzoyl]piperazine], the inhibitory constant (Ki) amounted to 3390 nM. Further, the inhibition at 10 µM (@ 10 μM compound) amounted to 78%. Turning to `O=C(c1cccc(C#Cc2ccccc2)c1)N1CCN(c2cccc(Cl)c2)CC1` [Compound 82, 1-(3-chlorophenyl)-4-[3-(phenylethynyl)benzoyl]piperazine], the Ki was 2770 nM. Moreover, where the note is “@ 10 μM compound”, the inhibition at 10 µM was 58%. The matching figures for `O=C(c1cccc(C#Cc2ccccc2)c1)N1CCN(c2ccc(O)cc2)CC1` [Compound 83, 4-{4-[3-(phenylethynyl)benzoyl]piperazin-1-yl}phenol]: over 10000 nM and 74%. For `O=C(c1cccc(C#Cc2ccccc2)c1)N1CCN(c2cc(Cl)cc(Cl)c2)CC1` [Compound 84, 1-(3,5-dichlorophenyl)-4-[3-(phenylethynyl)benzoyl]piperazine], the inhibition at 10 µM (@ 10 μM compound) came to 0%. On to `O=C(c1cccc(C#Cc2ccccc2)c1)N1CCN(c2cccc(C(F)(F)F)c2)CC1` [Compound 85, 1-[3-(phenylethynyl)benzoyl]-4-[3-(trifluoromethyl)phenyl]piperazine], for which the inhibition at 10 µM (@ 10 μM compound) was found to be 32%. As to `O=C(c1cccc(C#Cc2ccccc2)c1)N1CCN(c2cnccn2)CC1` [Compound 86, 2-{4-[3-(phenylethynyl)benzoyl]piperazin-1-yl}pyrazine], under “@ 10 μM compound”, the inhibition at 10 µM amounted to 85%.

For the molecule `O=C(c1cncc(C#Cc2ccccc2)c1)N1CCN(c2ccccn2)CC1` [Compound 87, 1-{[5-(phenylethynyl)pyridin-3-yl]carbonyl}-4-pyridin-2-ylpiperazine], the Ki is 3310 nM. In addition, the inhibition at 10 µM (@ 10 μM compound) was found to be 56%.

Take `O=C(c1ccc(F)c(C#Cc2ccccc2)c1)N1CCN(c2ccccn2)CC1` [Compound 89, 1-[4-fluoro-3-(phenylethynyl)benzoyl]-4-pyridin-2-ylpiperazine]: the Ki was determined as 50 nM. Under “@ 10 μM compound”, the inhibition at 10 µM was 51%. Take `Cc1c(C#Cc2ccccc2)cccc1C(=O)N1CCN(c2ccccn2)CC1` [Compound 91, 1-[2-methyl-3-(phenylethynyl)benzoyl]-4-pyridin-2-ylpiperazine]: the inhibition at 10 µM (@ 10 μM compound) amounted to 18%.

Consider `O=C(c1cccc(C#Cc2cccnc2)c1)N1CCN(c2ccccn2)CC1` [Compound 93, 1-pyridin-2-yl-4-[3-(pyridin-3-ylethynyl)benzoyl]piperazine], for which the inhibition at 10 µM (@ 10 μM compound) was 26%. `O=C(c1cccc(C#Cc2ccccn2)c1)N1CCN(c2cnccn2)CC1` [Compound 94, 2-{4-[3-(pyridin-2-ylethynyl)benzoyl]piperazin-1-yl}pyrazine]: the Ki turned out to be 395 nM. Further, for the setting “@ 10 μM compound”, the inhibition at 10 µM was found to be 79%. Turning to `N#Cc1ccc(N2CCN(C(=O)c3cccc(C#Cc4ccccn4)c3)CC2)nc1` [Compound 96, 6-{4-[3-(pyridin-2-ylethynyl)benzoyl]piperazin-1-yl}nicotinonitrile], the Ki amounted to 3240 nM. Further, the inhibition at 10 µM (@ 10 μM compound) came to 50%. Consider `O=C(c1cccc(C#Cc2ccccn2)c1)N1CCN(c2nnn[nH]2)CC1` [Compound 97, 1-[3-(pyridin-2-ylethynyl)benzoyl]-4-(1H-tetrazol-5-yl)piperazine], for which the inhibition at 10 µM (@ 10 μM compound) stood at 0%. In the case of `CC1CN(c2ccccn2)CCN1C(=O)c1cccc(C#Cc2ccccn2)c1` (centres unmarked) [Compound 98, 2-methyl-4-pyridin-2-yl-1-[3-(pyridin-2-ylethynyl)benzoyl]piperazine], the Ki stood at 679 nM. Moreover, the inhibition at 10 µM (@ 10 μM compound) was 72%.

With `O=C(c1cccc(C#Cc2ccccn2)c1)N1CCN(c2ncc(O)cn2)CC1` [Compound 99, 2-{4-[3-(pyridin-2-ylethynyl)benzoyl]piperazin-1-yl}pyrimidin-5-ol], the Ki is 1450 nM. Where the note is “@ 10 μM compound”, the inhibition at 10 µM is 64%. Regarding `Cc1cc(C)nc(N2CCN(C(=O)c3cccc(C#Cc4ccccn4)c3)CC2)n1` [Compound 100, 4,6-dimethyl-2-{4-[3-(pyridin-2-ethynyl)benzoyl]piperazin-1-yl}pyrimidine], the Ki came to 2160 nM. Further, the inhibition at 10 µM (@ 10 μM compound) is 55%. Take `COc1cccnc1N1CCN(C(=O)c2cccc(C#Cc3ccccn3)c2)CC1` [Compound 101, 1-(3-methoxypyridin-2-yl)-4-[3-(pyridin-2-ylethynyl)benzoyl]piperazine]: the Ki is 2350 nM. The inhibition at 10 µM (@ 10 μM compound) was determined as 52%. For `COc1nsnc1N1CCN(C(=O)c2cccc(C#Cc3ccccn3)c2)CC1` [Compound 102, 1-(4-methoxy-1,2,5-thiadiazol-3-yl)-4-[3-(pyridin-2-ylethynyl)benzoyl]piperazine] the same measures were 80 nM and 92%. On to `Cc1cnc(C)c(N2CCN(C(=O)c3cccc(C#Cc4ccccn4)c3)CC2)n1` [Compound 103, 2,5-dimethyl-3-{4-[3-(pyridin-2-ylethynyl)benzoyl]piperazin-1-yl}pyrazine], for which the inhibition at 10 µM (@ 10 μM compound) is 16%. Take `O=C(c1cccc(C#Cc2ccccn2)c1)N1CCN(c2cncc(Cl)n2)CC1` [Compound 104, 2-chloro-6-{4-[3-(pyridin-2-ylethynyl)benzoyl]piperazin-1-yl}pyrazine]: the Ki came to 1460 nM. Besides, the inhibition at 10 µM (@ 10 μM compound) came to 71%. As to `CC1CN(C(=O)c2cccc(C#Cc3ccccn3)c2)CCN1c1ccccn1` (centres unmarked) [Compound 105, 2-methyl-1-pyridin-2-yl-4-[3-(pyridin-2-ylethynyl)benzoyl]piperazine], the Ki turned out to be 826 nM. The inhibition at 10 µM (@ 10 μM compound) is 58%. As for `O=C(c1cccc(C#Cc2ccccn2)c1)N1CCN(c2nccc(-c3ccccc3)n2)CC1` [Compound 106, 4-phenyl-2-{4-[3-(pyridin-2-ylethynyl)benzoyl]piperazin-1-yl}pyrimidine], the inhibition constant Ki amounted to 2.19 nM. For the same molecule, the inhibition at 10 µM (@ 10 μM compound) came to 86%.

Turning to `O=C(c1cccc(C#Cc2ccccc2)c1)N1CCN(c2ccc(C(F)(F)F)cn2)CC1` [Compound 108, 1-[3-(phenylethynyl)benzoyl]-4-[5-(trifluoromethyl)pyridin-2-yl]piperazine], where the note is “@ 10 μM compound”, the inhibition at 10 µM was determined as 0%. Take `Cc1cccc(N2CCN(C(=O)c3cccc(C#Cc4ccccc4)c3)CC2)n1` [Compound 110, 1-(6-methylpyridin-2-yl)-4-[3-(phenylethynyl)benzoyl]piperazine]: the Ki turned out to be 3410 nM. Also, the inhibition at 10 µM (@ 10 μM compound) is 68%. With `Cc1cc(C)nc(N2CCN(C(=O)c3cccc(C#Cc4ccccc4)c3)CC2)n1` [Compound 111, 4,6-dimethyl-2-{4-[3-(phenylethynyl)benzoyl]piperazin-1-yl}pyrimidine], the inhibition at 10 µM (@ 10 μM compound) was 0%. On to `COc1ccc(C(=O)N2CCN(c3ncccn3)CC2)cc1C#Cc1ccccc1` [Compound 112, 2-{4-[4-methoxy-3-(phenylethynyl)benzoyl]piperazin-1-yl}pyrimidine], for which the Ki was 62.5 nM. Moreover, for the setting “@ 10 μM compound”, the inhibition at 10 µM was found to be 90%.

For the molecule `COc1ccc(C(=O)N2CCN(c3ccc(C#N)cn3)CC2)cc1C#Cc1ccccc1` [Compound 113, 6-{4-[4-methoxy-3-(phenylethynyl)benzoyl]piperazin-1-yl}nicotinonitrile], the Ki came to 357 nM. In addition, the inhibition at 10 µM (@ 10 μM compound) was 81%.

(Values after patent publication US20090325964A1, “Piperazine Metabotropic Glutamate Receptor 5 (MGLUR5) Negative Allosteric Modulators For Anxiety/Depression” (Wyeth, priority 2008, published 2009).)
